In assay [1] the target is cAMP and cAMP-inhibited cGMP 3',5'-cyclic phosphodiesterase 10A (Homo sapiens, UniProt Q9Y233). In words: In Vitro Assay: Human recombinant PDE10A2 was expressed in Sf9 cells, using a recombinant baculovirus construct containing the full length sequence containing a 6ÿHis sequence following the start Met to allow metal affinity purification of the recombinant protein. Cells were harvested and the phosphodiesterase protein was purified by metal chelate chromatography on Ni-sepharose 6FF.The affinity of the compounds of Formula (I) for phophodiesterases (PDE) was measured by a scintillation proximity assay (SPA). PDE Yttrium Silicate SPA beads allow PDE activity to be measured by direct binding of the primary phosphate groups of non-cyclic AMP or GMP to the beads via a complex iron chelation mechanism. The amount of bound tritiated product ([3H]-AMP) is measured by liquid scintillation counting.The compounds were dissolved and diluted in 100% DMSO in polystyrene plates to a concentration of 100-fold the final concentration in the assay. Human PDE10A enzyme solution (10 uL) was added. A general note: Scintillation proximity formats need no separation of bound from free tracer.

The target of assay [2] is T1, cAMP and cAMP-inhibited cGMP 3',5'-cyclic phosphodiesterase 10A (Rattus norvegicus, UniProt Q9QYJ6).
T1 sequence (Q9QYJ6 whole entry): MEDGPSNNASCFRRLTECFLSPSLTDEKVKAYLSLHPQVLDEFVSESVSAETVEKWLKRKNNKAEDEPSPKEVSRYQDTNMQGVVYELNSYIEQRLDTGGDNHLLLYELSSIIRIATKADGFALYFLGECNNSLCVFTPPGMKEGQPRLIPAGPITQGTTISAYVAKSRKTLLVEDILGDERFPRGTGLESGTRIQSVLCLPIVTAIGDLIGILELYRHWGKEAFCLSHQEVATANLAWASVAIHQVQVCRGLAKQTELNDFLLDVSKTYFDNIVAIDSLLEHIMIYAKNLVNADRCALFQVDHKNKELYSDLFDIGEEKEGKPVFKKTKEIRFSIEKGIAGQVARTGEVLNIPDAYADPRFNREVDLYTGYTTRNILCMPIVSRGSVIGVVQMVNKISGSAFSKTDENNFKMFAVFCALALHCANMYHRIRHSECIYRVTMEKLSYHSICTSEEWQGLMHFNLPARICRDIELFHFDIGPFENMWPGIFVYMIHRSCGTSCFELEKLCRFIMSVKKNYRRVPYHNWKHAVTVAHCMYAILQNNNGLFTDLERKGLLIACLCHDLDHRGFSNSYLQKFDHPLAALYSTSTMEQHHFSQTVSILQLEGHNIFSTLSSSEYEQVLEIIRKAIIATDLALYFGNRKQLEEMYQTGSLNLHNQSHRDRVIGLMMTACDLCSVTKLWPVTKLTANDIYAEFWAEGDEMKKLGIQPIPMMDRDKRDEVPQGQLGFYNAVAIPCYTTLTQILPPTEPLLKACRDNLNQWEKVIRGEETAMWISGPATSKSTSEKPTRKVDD
In words: In Vitro Assay: Rat recombinant PDE10a (rPDE10a) was expressed in Sf9 cells using a recombinant rPDE10a baculovirus construct. Cells were harvested after 48 h of infection and the rPDE10a protein was purified by metal chelate chromatography on Ni-sepharose 6FF. Tested compounds were dissolved and diluted in 100% DMSO to a concentration 100 fold of the final concentration in the assay. Compound dilutions (0.4 uL) were added in 384 well plates to 20 uL of incubation buffer (50 mM Tris pH 7.8, 8.3 mM MgCl2, 1.7 mM EGTA). 10 uL of rPDE10a enzyme in incubation buffer was added and the reaction was started by addition of 10 uL substrate to a final concentration of 60 nM cAMP and 0.008 uCi3H-cAMP. The reaction was incubated for 60 min at rt. After incubation, the reaction was stopped with 20 uL of 17.8 mg/mL PDE SPA beads. After sedimentation of the beads during 30 min the radioactivity was measured in a Perkin Elmer Topcount scintillation counter.

What is called IC50 is the concentration that gives 50% inhibition.

Where only a bound is given, the exact number is not on record here.

Chain of cAMP and cAMP-inhibited cGMP 3',5'-cyclic phosphodiesterase 10A (Homo sapiens, UniProt Q9Y233) (Q9Y233 whole entry): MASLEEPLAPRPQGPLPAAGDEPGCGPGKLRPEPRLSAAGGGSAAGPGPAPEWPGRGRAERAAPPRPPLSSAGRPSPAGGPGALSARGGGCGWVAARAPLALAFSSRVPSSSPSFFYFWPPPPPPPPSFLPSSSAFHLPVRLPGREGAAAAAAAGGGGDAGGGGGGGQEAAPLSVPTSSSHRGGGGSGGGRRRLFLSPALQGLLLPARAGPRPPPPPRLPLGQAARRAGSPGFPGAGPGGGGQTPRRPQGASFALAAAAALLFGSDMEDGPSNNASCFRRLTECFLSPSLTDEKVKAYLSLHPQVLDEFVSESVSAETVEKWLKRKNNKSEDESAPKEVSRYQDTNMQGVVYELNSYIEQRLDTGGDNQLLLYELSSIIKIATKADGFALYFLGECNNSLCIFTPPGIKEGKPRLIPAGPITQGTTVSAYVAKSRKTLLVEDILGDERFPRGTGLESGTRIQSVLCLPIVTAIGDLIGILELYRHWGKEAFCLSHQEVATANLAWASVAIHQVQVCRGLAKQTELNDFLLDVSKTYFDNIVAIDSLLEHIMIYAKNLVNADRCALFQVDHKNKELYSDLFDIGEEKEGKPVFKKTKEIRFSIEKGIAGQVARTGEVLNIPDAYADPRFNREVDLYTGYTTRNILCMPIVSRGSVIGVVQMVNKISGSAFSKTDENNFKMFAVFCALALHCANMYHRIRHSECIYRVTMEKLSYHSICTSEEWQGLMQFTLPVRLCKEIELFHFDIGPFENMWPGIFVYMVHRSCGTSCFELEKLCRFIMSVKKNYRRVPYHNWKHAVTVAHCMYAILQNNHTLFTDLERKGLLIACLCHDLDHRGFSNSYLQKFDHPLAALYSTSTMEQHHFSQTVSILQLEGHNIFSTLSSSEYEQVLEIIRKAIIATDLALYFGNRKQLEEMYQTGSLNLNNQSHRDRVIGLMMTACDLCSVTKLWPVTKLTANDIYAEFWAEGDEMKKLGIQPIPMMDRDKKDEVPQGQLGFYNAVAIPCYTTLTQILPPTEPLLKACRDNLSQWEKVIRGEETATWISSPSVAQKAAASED

For the compound `C(#Cc1nc2c(N3CCOCC3)ccnn2c1-c1ccc(N2CCNCC2)nc1)c1ccc2ccccc2n1`, the IC50 was 3 nM in assay [1] and 1 nM in assay [2]. With `O=C(O)c1ccc(-c2c(CSc3ccc4ccccc4n3)nc3c(N4CCOCC4)ccnn23)cc1`, in assay [2], the IC50 was 1 nM. With `O=C(O)c1cccc2nc(/C=C/c3nc4c(N5CCOCC5)ccnn4c3-c3ccccc3)ccc12`, the half-inhibitory concentration (IC50) in assay [1] was below 1 nM; in assay [2], 1 nM. Take `O=C(O)CN1CCC(c2c(C#Cc3ccc4ccccc4n3)nc3c(N4CCOCC4)ccnn23)CC1`: the IC50 in assay [1] was determined as 7 nM; in assay [2], 5 nM.

With `C(=C\c1nc2c(N3CCOCC3)ccnn2c1-c1ccc(Sc2nnc[nH]2)nc1)/c1ccc2ccccc2n1`, the IC50 in assay [1] was found to be 6 nM; in assay [2] it was 4 nM. As for `COc1cccc(-c2c(/C=C/c3ccc4c(C(=O)O)cccc4n3)nc3c(N4CCOCC4)ccnn23)c1`, in assay [1], the IC50 was 1 nM.

On to `O=C(O)c1cccc2nc(/C=C/c3nc4c(N5CCOCC5)cc(Cl)nn4c3-c3cccnc3)ccc12`, for which the half-maximal inhibitory concentration (IC50) in assay [2] amounted to 2 nM. Consider `N#Cc1ccc(-c2c(/C=C/c3ccc4c(C(=O)O)cccc4n3)nc3c(N4CCOCC4)ccnn23)cc1`, for which, in assay [2], the IC50 was determined as 1 nM.
